Legend:
[1] = LogD (measured octanol water co-efficient); format: physicochemical
[2] = PAMPA (parallel artificial membrane permeability assay); format: in vitro ADME; conditions: FA: fraction absorbed
Description: (§1) Test compounds’ solubility was determined in a high-throughput thermodynamic solubility assay, as described previously. The PAMPA (parallel artificial membrane) assays were carried out, using a standard protocol. Plasma protein binding was determined by using mouse blood, whilst brain tissue binding was determined by using rat brain tissue homogenate. Intrinsic metabolic clearances were determined in mouse liver microsomes, using the compound depletion approach and LC–MS/MS quantification.

[3] = Intrinsic metabolic clearance in mouse liver microsomes; format: in vitro ADME; conditions: liver microsomes, read-out: Mouse liver microsomal clearance
Description: as §1

[4] = Mouse plasma protein binding; format: in vitro ADME; conditions: for fraction unbound: mouse plasma
Description: as §1

[5] = Intravenous pharmacokinetics in mouse; format: in vivo; conditions: for T1/2 / Vd: i.v. 5 mg/kg; for T1/2: elimination half-life; for half-life: i.v., read-out: Elimination half-life (converted); for Vd: read-out: Vss
Description: Determination of intravenous (i.v.) and per oral (p.o.) pharmacokinetics (PK) were carried out by using male BALB/c mice. […] To avoid any granular material, the solution was filtered, using a 0.45 μm syringe filter. The filtered solutions were dosed intravenously to mice via the lateral tail vein, at 5 mg/kg, with a dosing volume of 2 mL/kg. For all the p.o. PK studies, compounds were resuspended in 0.5% v/v methyl cellulose in 0.5 % v/v tween 80 solution. For 20 mg/kg dosing, 200 µL of compounds was administered orally to mice. […] Blood samples were collected into heparin microtainers and centrifuged, and then plasma was separated and frozen until analysis. Plasma samples (20 μL) were extracted with acetonitrile:methanol (3:1) containing internal standard. […] The supernatant was transferred to a 96-well analysis plate and analyzed, using optimized LC/MS/MS conditions. For every experiment, 3 mice were used per compound, per dose. The plasma concentration-time profile was obtained by plotting the mean value from the three animals at each time point. Various PK parameters, such as Cmax (maximum concentration), area under curve (AUC) and oral bioavailability (F) for compounds, were calculated by non-compartmental regression analysis, using an in-house fitting program developed at GNF [8]. All the in-life studies were carried out under protocols approved by the Animal Care and Use Committee (IACUC), following animal ethics guidelines of GNF.

[6] = tested on: T. b. brucei STIB795; assay: Hemolymphatic mouse model (stage 1 HAT efficacy model); format: in vivo; conditions: for % Cured / Mean day of Relapse / Mice Cured/Total: four days
Description: The T. b. brucei STIB795 acute mouse model mimics the hemolymphatic stage of the sleeping sickness disease. We used six female NMRI mice per experimental group, divided into two cages. Heparinized blood from a donor mouse with approximately 5 × 10^6 per mL parasitemia was suspended in phosphate saline glucose (PSG), to obtain a parasite suspension of […]. Each mouse was injected with 0.25 mL of parasite suspension (10^4 bloodstream forms of T. b. brucei STIB795) intraperitoneally. All compounds were formulated in 0.5% methylcellulose and 0.5% Tween80. Three days post-infection, test compounds were administered orally on four consecutive days, in a volume of 100 µL/10 g. Three mice served as infected–untreated controls. […] Until 31 days post-infection, parasitemia was monitored microscopically by tail-blood examination twice a week. Mice were considered cured when there was no parasitemia detected in the tail blood. All the results from the individual experiments were reported as number of mice cured over total number of mice treated. A Kaplan–Meier plot was used for representing the number of mice cured at different treatment doses.

[7] = tested on: MDR1-MDCK (Multi Drug Resistant 1 overexpressing Madin–Darby canine kidney cells); assay: in vitro; conditions: dog
Description: In order to evaluate potential of brain permeability, all three compounds were tested in an MDR1-MDCK permeability assay. […] Those that have a high efflux ratio are generally substrates for Pgp transporters, thereby having a higher propensity to be excluded from the brain. […] To assess directly the TP compounds’ ability to penetrate brain, mice were dosed with compound, and plasma and brains were collected after 5 and 60 min following intravenous dosing.

[8] = Brain-to-plasma drug concentration ratio in mice; format: in vivo; conditions: mouse, brain and plasma, intravenous, read-out: B/P Ratio; for Kp at 5 min: 5 min after 1 mg/kg i.v.; for Kp at 60 min: 60 min after 1 mg/kg i.v.
Description: For measurement of the brain-to-plasma drug concentration ratio, mice were dosed intravenously with 1 mg/kg compounds. Mice were euthanized at 5 and 60 min post-dosing, and blood and brains were collected. The compound concentrations in plasma and brains were measured, following the protocol described above.

[9] = tested on: T. b. brucei (GVR35-VSL2); assay: Meningoencephalic mouse model (stage 2 HAT efficacy model, GVR35) with bioluminescence imaging; format: in vivo
Description: The GVR35 mouse CNS model mimics the second (meningoencephalic) stage of African trypanosomiasis. Female CD1 mice (~8 weeks old, from Charles River) were injected intraperitoneally (i.p.) with 3 × 10^4 T. b. brucei (GVR35-VSL2) bloodstream-form parasites. As controls, a group of three untreated mice and another group of three mice treated with diminazene aceturate (DA) were included. […] Mice treated with DA usually relapse after 42 days post-infection. […]
Blood parasitemia was quantified weekly from day 21/22, by microscopy of blood from the tail vein. Mice were imaged for bioluminescence using an in vivo imaging system (IVIS) prior to treatment on day 21/22, and weekly after treatment, as described previously. Briefly, mice, in groups of three, were injected i.p. with 150 mg of D-luciferin (Promega) per kilogram body weight in PBS and imaged after 10 min, using an IVIS Spectrum (PerkinElmer, Waltham, Massachusetts MA, USA). Living Image Software (PerkinElmer) was used for acquisition and analysis of bioluminescence imaging data. Bioluminescence in the same rectangular region of interest (ROI) on whole-body mouse images was quantified and is shown in total flux (photons per second). Images were cropped to the ROIs and composites of images from representative mice are shown. Uncured mice were euthanized within 1 or 2 days of parasite detection in the blood. Cured mice were euthanized between day 92 and 101 post-infection. All the results from the individual experiments were reported as number of mice cured over total number of mice treated. A Kaplan–Meier plot was used for representing the number of mice cured at different treatment doses.

[10] = male, BALB/c, plasma, iv, 5 mg/kg

For `Cc1nc(C)c(C(=O)Nc2ccc(F)c(-c3nc4ncc(C(C)(C)C)cn4n3)c2)o1` [NITD689], the logD [1] was 3.05, the “PAMPA Permeability (% FA)” value [2] was 99.1 % FA and the microsomal CLint [3] was 7.41 µL/min/mg. The fraction unbound [4] was 0.095, the T1/2 [5] was 1.6 H and the clearance [5, 10] was 13.5 mL/min/kg. The half-life [5, 10] was 1.6 h, the Vd ([5]; male, BALB/c, plasma, iv) was 1.5 L/kg and the “% Cured” value ([6]; 1 mg/kg QD oral) was 0%. The “Mean day of Relapse” value ([6]; 1 mg/kg QD oral) was 19.5 days post infection, the “Mice Cured/Total” value ([6]; 1 mg/kg QD oral) was 0/6 and the “% Cured” value ([6]; 1.5 mg/kg BID oral) was 16.7%. The “Mean day of Relapse” value ([6]; 1.5 mg/kg BID oral) was 21 days post infection, the “Mice Cured/Total” value ([6]; 1.5 mg/kg BID oral) was 1/6 and the “% Cured” value ([6]; 3 mg/kg QD oral) was 50%. The “Mean day of Relapse” value ([6]; 3 mg/kg QD oral) was 21 days post infection, the “Mice Cured/Total” value ([6]; 3 mg/kg QD oral) was 3/6 and the “% Cured” value ([6]; 10 mg/kg QD oral) was 100%. For the same compound, the “Mean day of Relapse” value ([6]; 10 mg/kg QD oral) was over 31 days post infection, the “Mice Cured/Total” value ([6]; 10 mg/kg QD oral) was 6/6 and the Minimum efficacious dose ([6]; QD dosing for four days, stage 1 model) was 10 mg/kg. The “MDR1-MDCK A–B” value [7] was 32.6, the “MDR1-MDCK B–A” value [7] was 29.2 and the Kp at 5 min [8] was 0.12. The Kp at 60 min [8] was 0.12, the “% Cured” value ([9]; 15 mg/kg BID oral, seven days) was 0% and the “Mean Day of Relapse” value ([9]; 15 mg/kg BID oral, seven days) was 42 days post infection. The “Mice Cured/Total” value ([9]; 15 mg/kg BID oral, seven days) was 0/6, the “Cure outcome” value ([9]; 15 mg/kg twice daily and 30 mg/kg once daily) was “failed to cure” and the “% Cured” value ([9]; 30 mg/kg BID oral, seven days) was 100%. The “Mean Day of Relapse” value ([9]; 30 mg/kg BID oral, seven days) was over 94 days post infection, the “Mice Cured/Total” value ([9]; 30 mg/kg BID oral, seven days) was 6/6 and the “% Cured” value ([9]; 30 mg/kg QD oral, seven days) was 0%. For the same compound, the “Mean Day of Relapse” value ([9]; 30 mg/kg QD oral, seven days) was 50 days post infection, the “Mice Cured/Total” value ([9]; 30 mg/kg QD oral, seven days) was 0/6 and the “Cure outcome” value ([9]; 30 mg/kg twice daily and 60 mg/kg once daily) was “complete cure”. The “% Cured” value ([9]; 60 mg/kg QD oral, seven days) was 100%, the “Mean Day of Relapse” value ([9]; 60 mg/kg QD oral, seven days) was over 94 days post infection and the “Mice Cured/Total” value ([9]; 60 mg/kg QD oral, seven days) was 6/6. For the same compound, the “Dose that completely cured stage 2 infection” value ([9]; HAT mouse model, stage 2) was 60 mg/kg.

With `Cc1nc(C)c(C(=O)Nc2ccc(F)c(-c3nc4ncc(-c5ccccc5)cn4n3)c2)o1` [GNF3849] the logD [1] was 3.31, the “PAMPA Permeability (% FA)” value [2] was 96 % FA and the microsomal CLint [3] was 15.2 µL/min/mg. For the same compound, the “Mouse plasma protein binding” value [4] was “high”, the fraction unbound [4] was under 0.01 and the T1/2 [5] was 6.5 H. For the same compound, the half-life [5, 10] was 6.5 h, the Vd ([5]; male, BALB/c, plasma, iv) was 1.2 L/kg and the “% Cured” value ([6]; 7.5 mg/kg QD oral) was 100%. The “Mean day of Relapse” value ([6]; 7.5 mg/kg QD oral) was over 31 days post infection, the “Mice Cured/Total” value ([6]; 7.5 mg/kg QD oral) was 6/6 and the “% Cured” value ([6]; 25 mg/kg QD oral) was 100%. The “Mean day of Relapse” value ([6]; 25 mg/kg QD oral) was over 31 days post infection, the “Mice Cured/Total” value ([6]; 25 mg/kg QD oral) was 6/6 and the “% Cured” value ([6]; 75 mg/kg QD oral) was 100%. The “Mean day of Relapse” value ([6]; 75 mg/kg QD oral) was over 31 days post infection, the “Mice Cured/Total” value ([6]; 75 mg/kg QD oral) was 6/6 and the “Cure outcome” value ([6]; all doses: 7.5, 25 and 75 mg/kg, once daily, for four days) was “complete cure”. The “MDR1-MDCK A–B” value [7] was 4.5, the “MDR1-MDCK B–A” value [7] was 14.1 and the Kp at 5 min [8] was 0.22. For the same compound, the Kp at 60 min [8] was 0.28, the “% Cured” value ([9]; 7.5 mg/kg QD oral, seven days) was 0% and the “Mean Day of Relapse” value ([9]; 7.5 mg/kg QD oral, seven days) was 37 days post infection. The “Mice Cured/Total” value ([9]; 7.5 mg/kg QD oral, seven days) was 0/6, the “% Cured” value ([9]; 75 mg/kg QD oral, seven days) was 50% and the “Day of Relapse, mice which did not relapse (value in parenthesis)” value ([9]; 75 mg/kg QD oral, seven days) was over 92 days post infection. The “Mice Cured/Total” value ([9]; 75 mg/kg QD oral, seven days) was 3/6, the “Mean Day of Relapse” value ([9]; 75 mg/kg QD oral, seven days, mice which relapsed) was 60 days post infection and the “Cure outcome” value ([9]; 7.5 and 75 mg/kg, once daily) was “failed to achieve complete cure”.

Reference: publication PMC7157554, “Anti-Trypanosomal Proteasome Inhibitors Cure Hemolymphatic and Meningoencephalic Murine Infection Models of African Trypanosomiasis” (Tropical Medicine and Infectious Disease, 2020)
